Some test systems named below: ACHN; COLO 205; DU-145; HCT-116; HL-60; HOP-92; K562; LOX IMVI; MDA-MB-231; MOLT-4; NCI-H226; NCI-H23; OVCAR-4; PC-3; RXF 393; SF-268; SN12C; SW-620; T47D; U-251.
Holding throughout (experiment): NCI tumour cell line growth inhibition, 48 h

Each structure is given as a SMILES string.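 Step 1: Grow cells in 96-well plates. Step 2: Expose to compound for 48 hours at 5 concentrations. Step 3: Interpolate endpoints linearly; if unreached, use highest concentration. GI50 = concentration required for 50% inhibition of growth.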 The source made the active and inactive calls. Cut-off read from the data, not from the text of the source: active = GI50 up to about 1.1 µM and inactive = higher. Some results are limits rather than exact numbers.

Take `NC1(C(=O)OCc2ccccc2)CCCC1`: the GI50 in the experiment on ACHN is 15.2 µM (inactive); in the experiment with COLO 205, 28.1 µM (inactive); with DU-145, 16.6 µM (inactive); in the experiment on HCT-116, 18 µM (inactive); in the experiment with HL-60 it was 0.21 µM (active); in the experiment with HOP-92 it was 14.4 µM (inactive). For the same compound, the GI50 in the experiment with K562 was 14.8 µM (inactive); in the experiment with LOX IMVI it was 18.2 µM (inactive); in the experiment with MDA-MB-231, 15.8 µM (inactive); in the experiment on MOLT-4 it was 11.8 µM (inactive); in the experiment on NCI-H226, 30.1 µM (inactive); in the experiment with NCI-H23, 17.5 µM (inactive). The GI50 is 15.1 µM (inactive) in the experiment with OVCAR-4; 27.2 µM (inactive) in the experiment on PC-3; 17.4 µM (inactive) in the experiment with RXF 393; 15.1 µM (inactive) in the experiment on SF-268; 25.1 µM (inactive) in the experiment on SN12C; 36.6 µM (inactive) in the experiment with SW-620. The GI50 was 25.3 µM (inactive) with T47D and 16.3 µM (inactive) in the experiment on U-251.

Take `Nc1cccc2cc(Cl)cnc12`: the GI50 in the experiment with ACHN was > 100 µM (inactive); in the experiment with COLO 205 it was > 100 µM (inactive); in the experiment with DU-145, > 100 µM (inactive); in the experiment on HCT-116, > 100 µM (inactive); with HL-60, 22.8 µM (inactive); in the experiment with HOP-92 it was > 100 µM (inactive). Also, the GI50 in the experiment with K562 is > 100 µM (inactive); with LOX IMVI, > 100 µM (inactive); with MDA-MB-231, > 100 µM (inactive); in the experiment on MOLT-4, 37.2 µM (inactive); in the experiment with NCI-H226 it was > 100 µM (inactive); in the experiment with NCI-H23, > 100 µM (inactive). Also, the GI50 in the experiment with OVCAR-4 is > 100 µM (inactive); in the experiment with PC-3, 97.1 µM (inactive); in the experiment on RXF 393, > 100 µM (inactive); in the experiment with SF-268, > 100 µM (inactive); in the experiment with SN12C, > 100 µM (inactive); in the experiment with SW-620, > 100 µM (inactive). For the same compound, the GI50 is 15.2 µM (inactive) in the experiment on T47D and > 100 µM (inactive) with U-251.

On to `CCc1ccccc1NC(=O)C(C#N)C1=C(Cl)C(=O)c2ccccc2C1=O` (stereo not given), for which the GI50 in the experiment with ACHN is 15.2 µM (inactive); in the experiment with COLO 205, 15.7 µM (inactive); with DU-145, 17.4 µM (inactive); with HCT-116, 13 µM (inactive); in the experiment on HL-60, 26.2 µM (inactive); in the experiment on HOP-92, 29.4 µM (inactive). For the same compound, the GI50 is 8.04 µM (inactive) in the experiment on K562; 13.2 µM (inactive) in the experiment on LOX IMVI; 7.03 µM (inactive) in the experiment on MDA-MB-231; 8.73 µM (inactive) in the experiment with MOLT-4; 15.3 µM (inactive) with NCI-H226; 12.6 µM (inactive) with NCI-H23. In addition, the GI50 with OVCAR-4 was 13.6 µM (inactive); with PC-3, 14.6 µM (inactive); with RXF 393 it was 20.5 µM (inactive); with SF-268, 21.7 µM (inactive); in the experiment with SN12C, 13.1 µM (inactive); in the experiment with SW-620 it was 18.4 µM (inactive). The GI50 is 19.5 µM (inactive) in the experiment with T47D and 15.4 µM (inactive) in the experiment with U-251.

For the compound `COC(=O)[C@@H]1[C@H](OC(C)=O)CCC2[C@@]3(C[C@@H](c4ccoc4)O[C@@H]3OC)[C@H](C)CC[C@]21C(=O)OC` (stereo not given in full), the GI50 in the experiment with ACHN was > 25 µM (inactive); in the experiment on COLO 205, > 25 µM (inactive); with DU-145, > 25 µM (inactive); with HCT-116, > 25 µM (inactive); in the experiment with HL-60, 19 µM (inactive); with HOP-92, > 25 µM (inactive). Besides, the GI50 in the experiment on K562, with LOX IMVI, in the experiment on MDA-MB-231, in the experiment with MOLT-4, in the experiment on NCI-H226 and with NCI-H23 was > 25 µM (inactive) throughout. Further, the GI50 in the experiment with OVCAR-4, in the experiment on PC-3, in the experiment with RXF 393, in the experiment with SF-268, with SN12C and in the experiment on SW-620 was > 25 µM (inactive) in each case. Besides, the GI50 in the experiment on T47D and in the experiment with U-251 was > 25 µM (inactive) each time.

With `Clc1ccc(CSCCc2ccncc2)cc1Cl`, the GI50 is 21.7 µM (inactive) with ACHN; 14.2 µM (inactive) in the experiment with COLO 205; 29.2 µM (inactive) in the experiment with DU-145; 15.8 µM (inactive) in the experiment with HCT-116; 17 µM (inactive) in the experiment with HL-60; 13.1 µM (inactive) in the experiment on HOP-92. The GI50 with K562 was 19.3 µM (inactive); in the experiment on LOX IMVI, > 10 µM (inactive); with MDA-MB-231, 15.4 µM (inactive); in the experiment on MOLT-4, 15.8 µM (inactive); in the experiment with NCI-H226, 22 µM (inactive); with NCI-H23 it was 22 µM (inactive). Further, the GI50 in the experiment with OVCAR-4 was 23.1 µM (inactive); in the experiment with PC-3, 21.2 µM (inactive); in the experiment on RXF 393, 21.9 µM (inactive); with SF-268, 21.9 µM (inactive); with SN12C it was 17.4 µM (inactive); with SW-620 it was 19.6 µM (inactive). Moreover, the figures for the GI50 in the experiment with T47D and with U-251 were 26.3 µM (inactive) and 15.2 µM (inactive), respectively.

In the case of `COc1cc2c(cc1OC)C(=O)/C(=C/c1ccccc1)CC2`, the GI50 in the experiment with ACHN is 53.5 µM (inactive); in the experiment on COLO 205, 22.1 µM (inactive); in the experiment on DU-145, 83.2 µM (inactive); with HCT-116 it was 23.8 µM (inactive); in the experiment with HL-60, 0.0426 µM (active); in the experiment with HOP-92, 24.8 µM (inactive). For the same compound, the GI50 in the experiment on K562 was 34.4 µM (inactive); in the experiment on LOX IMVI it was 32.7 µM (inactive); in the experiment on MDA-MB-231, > 100 µM (inactive); with MOLT-4, 18.1 µM (inactive); in the experiment with NCI-H226, 41.4 µM (inactive); with NCI-H23, > 100 µM (inactive). For the same compound, the GI50 in the experiment on OVCAR-4 is 62.4 µM (inactive); in the experiment on PC-3, 42.5 µM (inactive); in the experiment on RXF 393 it was > 100 µM (inactive); in the experiment on SF-268, 46.7 µM (inactive); in the experiment on SN12C, 43.7 µM (inactive); with SW-620 it was 40.4 µM (inactive). The GI50 in the experiment with T47D was 26.1 µM (inactive); in the experiment with U-251, 53.2 µM (inactive).

With `C1CN(c2nnc(N3CCC3)nn2)C1`, the GI50 was > 69.8 µM (inactive) with ACHN; 60.7 µM (inactive) in the experiment with COLO 205; > 100 µM (inactive) in the experiment with DU-145; 84.5 µM (inactive) with HCT-116; > 100 µM (inactive) in the experiment with HL-60; > 100 µM (inactive) with HOP-92. Further, the GI50 with K562 was 23.6 µM (inactive); in the experiment on LOX IMVI, 17.8 µM (inactive); in the experiment with MDA-MB-231, > 42.6 µM (inactive); in the experiment on MOLT-4, > 100 µM (inactive); in the experiment on NCI-H226 it was > 96.6 µM (inactive); with NCI-H23, 30.6 µM (inactive). The GI50 is 40.9 µM (inactive) in the experiment with OVCAR-4; > 46 µM (inactive) in the experiment with PC-3; > 63.5 µM (inactive) in the experiment on RXF 393; 90.6 µM (inactive) in the experiment on SF-268; 29 µM (inactive) with SN12C; 32.3 µM (inactive) in the experiment with SW-620. Further, the results for the GI50 in the experiment with T47D and with U-251 were > 100 µM (inactive) and > 71.8 µM (inactive), respectively.
